Legend:
[1] = biological target: human α2β3γ2 GABAARs (benzodiazepine site) (Homo sapiens (Human), UniProt P18507+P47869); experiment: In vitro radioligand binding assay ([3H]Ro15-1788 displacement), α2-GABAAR Ki
How it was run: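 Ki derived via Cheng-Prusoff from IC50 for displacement of 4 nM [3H]Ro15-1788 (Kd from saturation binding), with 1-3 μM TP003 defining nonspecific binding. Incubation lasted 1 h at 4° C on membranes of induced L(tk−) cells stably transfected with the human subunits; detection by filtration and scintillation counting.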

[2] = biological target: human α3β3γ2 GABAARs (benzodiazepine site) (Homo sapiens (Human), UniProt P18507+P34903); experiment: In vitro radioligand binding assay ([3H]Ro15-1788 displacement), α3-GABAAR Ki; details: L(tk-) cell membranes, 4 nM [3H]Ro15-1788
Experimental: The affinity (Ki) of compounds for the benzodiazepine site of human recombinant GABAARs was measured by their ability to inhibit the binding of the selective benzodiazepine antagonist [^3H]Ro15-1788 ([^3H] flumazenil).
Mouse L(tk^−) cells stably expressing human α1β3γ2, α2β3γ2, α3β3γ2, α5β3γ2 GABAARs were generated by transfection of the individual subunits in the dexamethasone-inducible expression vector pMSGneo in mouse L(tk^−) cells (Hadingham et al., 1993, Mol. Pharmacol. 43:970-975 and 1993, Mol. Pharmacol. 44:1211-1218).
L(tk^−) cells stably expressing human α1β3γ2, α2β3γ2, α3β3γ2, α5β3γ2 GABAARs were maintained in DMEM F12 medium supplemented with 10% Foetal Bovine Serum, 1% Penicillin/Streptomycin and 1 mg/mL Geneticin G418 in an incubator at 37° C. with a humidified atmosphere with 5% CO2. Dexamethasone was added to the culture medium to induce GABAAR expression.
L(tk−) cells were harvested and membranes were prepared for each receptor combination in either TE buffer (10 mM Tris·CI/0.1 mM EDTA, pH 7.5) or phosphate buffer (K2PO4 10 mM, pH 7.0) (Hadingham et al. (1992) Proc. Natl. Acad. Sci. USA; 89 (14): 6378-82). Protein concentration, receptor expression and the Kd of [^3H]Ro15-1788 were determined before Ki value of the compounds were evaluated. For Kd evaluation, saturation binding curves were obtained by incubating membrane with various concentrations of [^3H]Ro15-1788 (82.5 Ci/mM), with nonspecific binding measured in the presence of 1-3 μM TP003.
For Ki evaluation, cell membranes were incubated with 4 nM [^3H]Ro15-1788 along with a range of concentrations of test compound. Nonspecific binding was determined using 1-3 μM TP003. All incubations were performed for 1 hour at 4° C. in assay buffer. The total assay volume was 0.5 mL, containing 40 μg/well α1β3γ2, 30 μg/well α2β3γ2, 40 μg/well α3β3γ2 and 30 μg/well for α5β3γ2 of membrane protein. Incubations were terminated by filtration and washing with ice cold Tris-HCl buffer (50 mM, pH=7.4) over Whatman GF/B filters and the radioactivity of the filters was measured using liquid scintillation counting.
The % inhibition of [^3H]Ro15-1788 binding was plotted as a function of compound concentration and the IC50 calculated. From the IC50, the affinity (Ki) was calculated using the method of Cheng and Prusoff using the Kd values obtained for [^3H]Ro15-1788.

human α2β3γ2 GABAARs = experiment: In vitro electrophysiological recording assay (automated patch-clamp), α2-GABAAR relative efficacy; format: cell-based; details: % efficacy normalised to diazepam; GABA EC10-20; concentration generally >= 100 times Ki
How it was run: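 Relative efficacy is % enhancement of the leak-subtracted GABA EC10-20 peak current, divided by the separately measured diazepam value; compound generally tested at ≥100× Ki after ≥1 min pre-application. Recordings at room temperature, human receptors stably expressed in L(tk^−) (QPatch, −65 mV) or HEK293 (SyncroPatch, −80 mV) cells.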

human α3β3γ2 GABAARs = experiment: In vitro electrophysiological recording assay (automated patch-clamp), α3-GABAAR relative efficacy; format: cell-based; details: % efficacy normalised to diazepam; GABA EC10-20; concentration generally >= 100 times Ki
Experimental: The efficacy of modulators was evaluated using the automated patch-clamp platforms QPatch16 (Sophion, Copenhagen, Denmark) or SyncroPatch 384PE (Nanion, Germany).
For QPatch electrophysiology testing L(tk^−) cells stably expressing human α1β3γ2, α2β3γ2, α3β3γ2, α5β3γ2 GABAARs were used. HEK293 cells stably expressing human α1β3γ2L, α2β3γ2L, α3β3γ2L and α5β3γ2L GABAARs were used for the SyncroPatch 384PE experiments.
All experiments were carried out at room temperature (20-22° C.) using a standard whole cell procedure and physiological solutions. Gigaseals were formed upon execution of a combined suction/voltage protocol with subsequent increased suction leading to the whole-cell configuration.
The currents recorded were acquired at either 1 KHz or 2 KHz and filtered using a Bessel filter. Whole-cell currents were measured at a holding potential of-65 mV (QPatch) or −80 mV (SyncroPatch).
For QPatch experiments, the extracellular solution contained of: 145 mM NaCl, 4 mM KCl, 1 mM MgCl2, 2 mM CaCl2), 10 mM HEPES, 10 mM D-glucose (pH 7.4), and the intracellular solution consisted of: 96 mM KCl, 28 mM CsCl, 25 mM KOH, 4.3 mM CaCl2), 1.4 mM MgCl2, 10 mM EGTA, 10 mM HEPES, 3 mM MgATP (pH 7.2). The osmolarities of the extracellular and intracellular solutions were 305 and 295 mOsm respectively.
For SyncroPatch experiments, the extracellular recording solution contained: 140 mM NaCl, 4 mM KCl, 2 mM CaCl2), 1 mM MgCl2, 10 mM HEPES, 5 mM glucose (pH 7.4 with NaOH and osmolarity of c. 300-310 mOsm). The intracellular recording solution consisted of: 90 mM KCl, 50 mM KF, 1.5 mM MgCl2, 11.1 mM EGTA and 10 mM HEPES (pH 7.2 with KOH and osmolarity of c. 300 mOsm). 2 mM of NaATP was added to the intracellular solution on the day of testing.
The effects of modulators were evaluated in the presence of a submaximal GABA concentration, giving typically less than 30% activation of the response elicited by a saturating GABA concentration. To check and ensure baseline current stability before compound addition, two to five consecutive applications of GABA EC10-20 separated by wash steps were performed before compound addition. The test compound was applied 1 min at least prior to co-application with GABA EC10-20. Following a further wash step, a saturating concentration of GABA was applied at the end of each recording, allowing the accurate evaluation for each cell of the percentage baseline activation elicited by the submaximal GABA applied.
The compounds were first dissolved in DMSO as a 10 mM stock and then further diluted to the testing concentrations so that the final DMSO concentration in the extracellular recording solution was 0.1% (QPatch) or 0.2% (SyncroPatch).
The % efficacy of modulators was determined from the GABA elicited currents recorded in the presence and absence of the test compound, using the formula:
[((compound peak current−leak)−(GABA peak current-leak))/(GABA peak current−leak)]*100,
where ‘leak’ is the leak baseline current at the holding potential, ‘compound peak current’ is the current elicited by co-application of compound and GABA, and ‘GABA peak current’ is the current elicited by GABA alone at the last GABA application before compound addition. The results were presented as ‘relative efficacy’ for each compound generally at a concentration equal or higher than 100 times their determined Ki. The relative efficacy of a compound was calculated by normalising its % efficacy to the corresponding % efficacy of diazepam that was separately determined.

human α2β3γ2 GABAARs (benzodiazepine site), sequence (P47869 29-451): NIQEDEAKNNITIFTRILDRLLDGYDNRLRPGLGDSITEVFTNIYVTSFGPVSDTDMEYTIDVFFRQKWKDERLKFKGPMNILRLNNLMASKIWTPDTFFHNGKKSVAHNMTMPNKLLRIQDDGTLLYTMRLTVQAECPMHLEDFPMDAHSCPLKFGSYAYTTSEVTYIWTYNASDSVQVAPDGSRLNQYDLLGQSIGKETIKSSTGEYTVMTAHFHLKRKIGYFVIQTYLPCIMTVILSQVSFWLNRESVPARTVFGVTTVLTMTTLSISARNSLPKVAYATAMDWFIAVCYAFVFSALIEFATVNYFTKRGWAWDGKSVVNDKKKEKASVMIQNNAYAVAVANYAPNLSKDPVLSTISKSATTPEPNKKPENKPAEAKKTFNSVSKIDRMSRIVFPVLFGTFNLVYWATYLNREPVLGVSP
human α2β3γ2 GABAARs (benzodiazepine site), sequence (P28472 26-473 partner): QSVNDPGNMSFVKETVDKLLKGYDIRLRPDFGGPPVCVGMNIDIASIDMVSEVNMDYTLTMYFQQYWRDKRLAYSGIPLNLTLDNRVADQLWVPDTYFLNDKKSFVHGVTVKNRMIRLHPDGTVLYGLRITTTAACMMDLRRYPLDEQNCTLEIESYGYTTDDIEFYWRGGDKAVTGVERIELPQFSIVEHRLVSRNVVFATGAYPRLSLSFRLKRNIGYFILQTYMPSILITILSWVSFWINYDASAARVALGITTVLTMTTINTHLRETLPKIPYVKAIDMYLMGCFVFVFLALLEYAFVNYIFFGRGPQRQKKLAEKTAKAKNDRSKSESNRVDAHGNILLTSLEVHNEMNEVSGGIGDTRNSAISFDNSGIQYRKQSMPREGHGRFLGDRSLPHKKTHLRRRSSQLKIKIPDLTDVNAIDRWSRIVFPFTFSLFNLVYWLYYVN
human α2β3γ2 GABAARs (benzodiazepine site), sequence (P18507 40-475): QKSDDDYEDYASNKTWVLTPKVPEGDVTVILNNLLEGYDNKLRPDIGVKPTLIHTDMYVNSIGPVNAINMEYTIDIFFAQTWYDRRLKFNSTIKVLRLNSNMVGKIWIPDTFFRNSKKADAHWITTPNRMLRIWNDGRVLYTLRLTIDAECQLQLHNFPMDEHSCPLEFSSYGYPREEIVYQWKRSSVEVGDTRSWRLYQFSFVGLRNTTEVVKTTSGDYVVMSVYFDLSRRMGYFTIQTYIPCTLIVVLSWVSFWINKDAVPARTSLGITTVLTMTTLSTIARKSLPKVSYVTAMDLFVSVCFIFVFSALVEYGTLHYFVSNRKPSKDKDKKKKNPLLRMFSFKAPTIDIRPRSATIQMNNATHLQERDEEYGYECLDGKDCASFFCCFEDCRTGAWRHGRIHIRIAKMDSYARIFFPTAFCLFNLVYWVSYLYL

| SMILES | Ki [1] | Ki [2] | α2-GABAAR Relative Efficacy (vs. Diazepam) (human α2β3γ2 GABAARs) | α3-GABAAR Relative Efficacy (vs. Diazepam) (human α3β3γ2 GABAARs) |
| --- | --- | --- | --- | --- |
| CCCNC(=O)c1c(N)c2cccc(-c3cc(OCc4c[nH]cn4)ccc3F)c2[nH]c1=O [Example 124, 8-(5-((1H-Imidazol-4-yl)methoxy)-2-fluorophenyl)-4-amino-2-oxo-N-propyl-1,2-dihydroquinoline-3-carboxamide] | 0.98 nM | 1.55 nM | 0.28 | 0.34 |
| CCCNC(=O)c1c(N)c2cccc(-c3cc(CN4CCN(C)CC4)ccc3F)c2[nH]c1=O [Example 137, 4-Amino-8-[2-fluoro-5-[(4-methylpiperazin-1-yl)methyl]phenyl]-2-oxo-N-propyl-1H-quinoline-3-carboxamide] | 3 nM | 8.07 nM | 0.42 | 0.53 |
| CCCNC(=O)c1c(N)c2cccc(-c3nc(CN4CCN(C)CC4)ccc3F)c2[nH]c1=O [Example 138, 4-Amino-8-(3-fluoro-6-((4-methylpiperazin-1-yl)methyl)pyridin-2-yl)-2-oxo-N-propyl-1,2-dihydroquinoline-3-carboxamide] | 1.87 nM | 4.99 nM | 0.17 | 0.42 |
| CCCNC(=O)c1c(N)c2cccc(-c3cc(CN4CCC5(CCN(C)C5)C4)ccc3F)c2[nH]c1=O (centres unmarked) [Example 142, 4-Amino-8-(2-fluoro-5-((7-methyl-2,7-diazaspiro[4.4]nonan-2-yl)methyl)phenyl)-2-oxo-N-propyl-1,2-dihydroquinoline-3-carboxamide] | 3.6 nM | 6.35 nM | 0.24 | 0.27 |
| CCCNC(=O)c1c(N)c2cccc(-c3cc(CN4CCC5(CCN(C)CC5)C4)ccc3F)c2[nH]c1=O [Example 143, 4-Amino-8-(2-fluoro-5-((8-methyl-2,8-diazaspiro[4.5]decan-2-yl)methyl)phenyl)-2-oxo-N-propyl-1,2-dihydroquinoline-3-carboxamide] | 1.8 nM | 10.1 nM | 0.32 | 0.11 |

— patent publication US20250197368A1 (priority 2020, published 2025)
